SMILES strings stand for the structures.

The first assay relates to NL-RLuc virus. Briefly: Inhibition of HIV replication: NL-RLuc reporter virus in MT-2 cells, luciferase readout. The format is cell-based. The note with it: Human immunodeficiency virus 1, MT2, 120 h, MT-2 cells infected with NL-RLuc virus, 5 days of incubation, 10% FBS, at least 2 experiments. An excerpt: Inhibition of HIV Replication:
A recombinant NL-RLuc proviral clone was constructed in which a section of the nef gene from NL4-3 was replaced with the Renilla Luciferase gene. This virus is fully infectious and can undergo multiple cycles of replication in cell culture. In addition, the luciferous reporter provides a simple and easy method for quantitating the extent of virus growth and consequently, the antiviral activity of test compounds. The plasmid pNLRLuc contains the proviral NL-Rluc DNA cloned into pUC 18 at the PvuII site. The NL-RLuc virus was prepared by transfection of 293T cells with the plasmid pNLRLuc. Transfections were performed using the LipofectAMINE PLUS kit from Invitrogen (Carlsbad, Calif.) according to the manufacturer and the virus generated was titered in MT-2 cells. For susceptibility analyses, the titrated virus was used to infect MT-2 cells in the presence of compound, and after 5 days of incubation, cells were processed and quantitated for virus growth by the amount of expressed luciferase. Assay media was RPMI 1640 supplemented with 10% heat inactivated fetal bovine serum (FBS), 100 units/ml penicillin G/100 units/ml streptomycin, 10 mM HEPES buffer pH 7.55 and 2 mM L-glutamine. The results from at least 2 experiments were used to calculate the EC50 values. Luciferase was quantitated using the Dual Luciferase kit from Promega (Madison, Wis.). Susceptibility of viruses to compounds was determined by incubation in the presence of serial dilutions of the compound. The 50% effective concentration (EC50) was calculated by using the exponential form of the median effect equation where (Fa)=1/[1+(ED50/drug conc.)^m](Johnson V A, Byington R T. Infectivity Assay. In Techniques in HIV Research. ed. Aldovini A, Walker B D. 71-76. New York: Stockton Press. 1990).
In turn, `Cc1c([C@H](OC(C)(C)C)C(=O)O)c2n3cc(nc3c1C)-c1cccc(c1)-c1cc(OC(F)(F)F)ccc1O[C@@H](C)CCCCOC1(C)CCN2CC1` [Example 42, (2S)-2-(tert-Butoxy)-2-[(22S)-4,5,22,28-tetramethyl-17-(trifluoromethoxy)-21,27-dioxa-1,7,34-triazahexacyclo[26.2.2.1^6,^9.1^10,^14.0^2,^7.0^15,^20]tetratriaconta-2,4,6(34),8,10(33),11,13,15(20),16,18-decaen-3-yl]acetic acid] registered an EC50 of 0.06 µM.

Regarding `CCc1c(C)c([C@H](OC(C)(C)C)C(=O)O)c2n3cc(nc13)-c1cccc(c1)-c1cc(F)ccc1O[C@@H](C)CCCCOC1(C)CCN2CC1` [Example 55, (2S)-2-(tert-Butoxy)-2-[(22S)-5-ethyl-17-fluoro-4,22,28-trimethyl-21,27-dioxa-1,7,34-triazahexacyclo[26.2.2.1^6,^9.1^10,^14.0^2,^7.0^15,^20]tetratriaconta-2,4,6(34),8,10(33),11,13,15(20),16,18-decaen-3-yl]acetic acid], the EC50 is 0.009 µM.

Take `Cc1cc2nc3cn2c(c1[C@H](OC(C)(C)C)C(=O)O)N1CCC(C)(CCCCCOc2ccccc2CNC3=O)CC1` [Example 1, (2S)-2-(tert-Butoxy)-2-{4,25-dimethyl-10-oxo-19-oxa-1,7,11,30-tetraazapentacyclo[23.2.2.1^6,^9.0^2,^7.0^13,^18]triaconta-2,4,6(30),8,13(18),14,16-heptaen-3-yl}acetic acid]: it took 0.071 µM to reach a half-maximal effect (EC50).

`Cc1cc2nc3c(Cl)n2c(c1[C@H](OC(C)(C)C)C(=O)O)N1CCC(C)(CC1)OCCCC[C@H](C)Oc1cc(F)c(F)cc1-c1cccc-3c1` [Example 23, (2S)-2-(tert-Butoxy)-2-[(22S)-8-chloro-17,18-difluoro-4,22,28-trimethyl-21,27-dioxa-1,7,34-triazahexacyclo[26.2.2.1^6,^9.1^10,^14.0^2,^7.0^15,^20]tetratriaconta-2,4,6(34),8,10(33),11,13,15(20),16,18-decaen-3-yl]acetic acid] had an EC50 of 0.019 µM.

Molecule `C=Cc1c(C)c([C@H](OC(C)(C)C)C(=O)O)c2n3cc(nc13)-c1cccc(c1)-c1cc(F)ccc1O[C@@H](C)CCCCOC1(C)CCN2CC1` [Example 38, (2S)-2-(tert-Butoxy)-2-[(22S)-5-ethenyl-17-fluoro-4,22,28-trimethyl-21,27-dioxa-1,7,34-triazahexacyclo[26.2.2.1^6,^9.1^10,^14.0^2,^7.0^15,^20]tetratriaconta-2,4,6(34),8,10(33),11,13,15(20),16,18-decaen-3-yl]acetic acid] returned an EC50 of 0.093 µM.

Turning to `Cc1cc2nc3cn2c(c1[C@H](OC(C)(C)C)C(=O)O)N1CCC(C)(CC1)OCCCC[C@H](C)Oc1cc(F)c(F)cc1-c1cccc-3c1` [Example 13, (2S)-2-(tert-Butoxy)-2-[(22S)-17,18-difluoro-4,22,28-trimethyl-21,27-dioxa-1,7,34-triazahexacyclo[26.2.2.1^6,^9.1^10,^14.0^2,^7.0^15,^20]tetratriaconta-2,4,6(34),8,10(33),11,13,15(20),16,18-decaen-3-yl]acetic acid], the EC50 amounted to 0.008 µM.

Molecule `Cc1cc(F)c2c(c1)O[C@@H](C)CCCCOC1(C)CCN(CC1)c1c([C@H](OC(C)(C)C)C(=O)O)c(C)cc3nc(cn13)-c1cccc-2c1` [Example 21, (2S)-2-(tert-Butoxy)-2-[(22S)-16-fluoro-4,18,22,28-tetramethyl-21,27-dioxa-1,7,34-triazahexacyclo[26.2.2.1^6,^9.1^10,^14.0^2,^7.0^15,^20]tetratriaconta-2,4,6(34),8,10(33),11,13,15(20),16,18-decaen-3-yl]acetic acid] displayed an EC50 of 0.005 µM.

`Cc1cc2c(cc1C)-c1cccc(c1)-c1cn3c(c([C@H](OC(C)(C)C)C(=O)O)c(C)cc3n1)N1CCC(C)(CC1)OC/C=C\C[C@H](C)O2` [Example 18, (2S)-2-(tert-Butoxy)-2-[(22S)-4,17,18,22,28-pentamethyl-21,27-dioxa-1,7,34-triazahexacyclo[26.2.2.1^6,^9.1^10,^14.0^2,^7.0^15,^20]tetratriaconta-2,4,6(34),8,10(33),11,13,15(20),16,18,24-undecaen-3-yl]acetic acid] came in with an EC50 of 0.008 µM.

`Cc1cc2nc3cn2c(c1[C@H](OC(C)(C)C)C(=O)O)N1CCC(C)(CC1)OCCCC[C@H](C)Oc1ccc(F)c(F)c1-c1cccc-3c1` [Example 46, (2S)-2-(tert-butoxy)-2-[(22S)-16,17-difluoro-4,22,28-trimethyl-21,27-dioxa-1,7,34-triazahexacyclo[26.2.2.1^6,^9.1^10,^14.0^2,^7.0^15,^20]tetratriaconta-2,4,6(34),8,10(33),11,13,15(20),16,18-decaen-3-yl]acetic acid] yielded an EC50 of 0.004 µM.

Molecule `C=C(C)c1c(C)c([C@H](OC(C)(C)C)C(=O)O)c2n3cc(nc13)-c1cccc(c1)-c1cc(F)ccc1O[C@@H](C)CCCCOC1(C)CCN2CC1` [Example 48, (2S)-2-(tert-Butoxy)-2-[(22S)-17-fluoro-4,22,28-trimethyl-5-(prop-1-en-2-yl)-21,27-dioxa-1,7,34-triazahexacyclo[26.2.2.1^6,^9.1^10,^14.0^2,^7.0^15,^20]tetratriaconta-2,4,6(34),8,10(33),11,13,15(20),16,18-decaen-3-yl]acetic acid] yielded an EC50 of 0.024 µM.

`Cc1cc2nc3cn2c(c1[C@H](OC(C)(C)C)C(=O)O)N1CCC(C)(CCCCCCOc2ccc(F)cc2CNC3=O)CC1` [Example 2, (2S)-2-(tert-Butoxy)-2-{15-fluoro-4,26-dimethyl-10-oxo-19-oxa-1,7,11,31-tetraazapentacyclo[24.2.2.1^6,^9.0^2,^7.0^13,^18]hentriaconta-2,4,6(31),8,13(18),14,16-heptaen-3-yl}acetic acid] came in with an EC50 of 0.016 µM.

Molecule `Cc1cc2c(cc1F)-c1cccc(c1)-c1nc3cc(C)c([C@H](OC(C)(C)C)C(=O)O)c(n3c1Cl)N1CCC(C)(CC1)OCCCC[C@H](C)O2` [Example 24, (2S)-2-(tert-Butoxy)-2-[(22S)-8-chloro-17-fluoro-4,18,22,28-tetramethyl-21,27-dioxa-1,7,34-triazahexacyclo[26.2.2.1^6,^9.1^10,^14.0^2,^7.0^15,^20]tetratriaconta-2,4,6(34),8,10(33),11,13,15(20),16,18-decaen-3-yl]acetic acid] displayed an EC50 of 0.02 µM.

`Cc1c([C@H](OC(C)(C)C)C(=O)O)c2n3cc(nc3c1C(C)C)-c1cccc(c1)-c1cc(F)ccc1O[C@@H](C)CCCCOC1(C)CCN2CC1` [Example 56, (2S)-2-(tert-Butoxy)-2-[(22S)-17-fluoro-4,22,28-trimethyl-5-(propan-2-yl)-21,27-dioxa-1,7,34-triazahexacyclo[26.2.2.1^6,^9.1^10,^14.0^2,^7.0^15,^20]tetratriaconta-2,4,6(34),8,10(33),11,13,15(20),16,18-decaen-3-yl]acetic acid] registered an EC50 of 0.072 µM.

In turn, `Cc1c([C@H](OC(C)(C)C)C(=O)O)c2n3cc(nc3c1-c1ccncc1)-c1cccc(c1)-c1cc(F)ccc1O[C@@H](C)CCCCOC1(C)CCN2CC1` [Example 39, (2S)-2-(tert-Butoxy)-2-[(22S)-17-fluoro-4,22,28-trimethyl-5-(pyridin-4-yl)-21,27-dioxa-1,7,34-triazahexacyclo[26.2.2.1^6,^9.1^10,^14.0^2,^7.0^15,^20]tetratriaconta-2,4,6(34),8,10(33),11,13,15(20),16,18-decaen-3-yl]acetic acid] returned an EC50 of 0.012 µM.

Molecule `Cc1cc2nc3cn2c(c1[C@H](OC(C)(C)C)C(=O)O)N1CCC(C)(CC1)OC/C=C/C[C@H](C)Oc1c(F)cccc1-c1cccc-3c1` [Example 34, (2S)-2-(tert-Butoxy)-2-[(22S,24E)-19-fluoro-4,22,28-trimethyl-21,27-dioxa-1,7,34-triazahexacyclo[26.2.2.1^6,^9.1^10,^14.0^2,^7.0^15,^20]tetratriaconta-2,4,6(34),8,10(33),11,13,15(20),16,18,24-undecaen-3-yl]acetic acid] came in with an EC50 of 0.003 µM.

The assay is the same for the next values; noted with them: MT-2 cells infected with NL-RLuc virus, 5 days of incubation, 10% FBS, at least 2 experiments.
For `Cc1c([C@H](OC(C)(C)C)C(=O)O)c2n3cc(nc3c1C)-c1cccc(c1)-c1c(F)cc(F)cc1O[C@@H](C)CCCCOC1(C)CCN2CC1` [Example 43, (2S)-2-(tert-Butoxy)-2-[(22S)-16,18-difluoro-4,5,22,28-tetramethyl-21,27-dioxa-1,7,34-triazahexacyclo[26.2.2.1^6,^9.1^10,^14.0^2,^7.0^15,^20]tetratriaconta-2,4,6(34),8,10(33),11,13,15(20),16,18-decaen-3-yl]acetic acid], a half-maximal effect (EC50) was put at 0.011 µM.

The assay is the same for the next values; noted with them: MT-2 cells infected with NL-RLuc virus, 5 days of incubation, 10% FBS, at least 2 experiments; read-out: EC50.
Consider `Cc1cc2nc3cn2c(c1[C@H](OC(C)(C)C)C(=O)O)N1CCC(C)(CC1)OCC=CC[C@H](C)Oc1cc(F)cc(F)c1-c1cccc-3c1` [Example 14, (2S)-2-(tert-Butoxy)-2-[(22S)-16,18-difluoro-4,22,28-trimethyl-21,27-dioxa-1,7,34-triazahexacyclo[26.2.2.1^6,^9.1^10,^14.0^2,^7.0^15,^20]tetratriaconta-2,4,6(34),8,10(33),11,13,15(20),16,18,24-undecaen-3-yl]acetic acid], for which the EC50 stood at 0.002 µM.

For orientation: EC50 means the concentration giving half of the maximal effect.

Source of the values: US9409922B2, “Imidazopyridine macrocycles as inhibitors of human immunodeficiency virus replication” (priority 2014, dated 2016).
